24 compounds from ChEMBL document CHEMBL4038320 (J Med Chem, 2017) can be followed below.

Data set [1] deals with CYP3A4 (Homo sapiens, UniProt P08684). The data set is described as follows: Inhibition of CYP3A4 (unknown origin) at 10 uM. Format: ADME.
Data set [2] concerns the target Protein kinase C alpha type (Homo sapiens, UniProt P17252). The data set is described as follows: Inhibition of human PKCalpha active using MBP as substrate after 60 mins in presence of [gamma-32]ATP by scintillation counting.
Data set [3] deals with Rho-associated protein kinase 2 (Homo sapiens, UniProt O75116). Nature of the data set: Inhibition of recombinant human N-terminal GST-tagged ROCK2 catalytic domain (1 to 553 residues) expressed in baculovirus expression system using STK 2-biotin as substrate measured after 60 mins by HTRF/TR-FRET assay. A general note: In TR-FRET formats the signal depends on donor and acceptor labels being close together.

For data set [4], the target named is T1, Rhodopsin kinase GRK7 (Homo sapiens, UniProt Q8WTQ7).
T1 sequence (Q8WTQ7 whole entry): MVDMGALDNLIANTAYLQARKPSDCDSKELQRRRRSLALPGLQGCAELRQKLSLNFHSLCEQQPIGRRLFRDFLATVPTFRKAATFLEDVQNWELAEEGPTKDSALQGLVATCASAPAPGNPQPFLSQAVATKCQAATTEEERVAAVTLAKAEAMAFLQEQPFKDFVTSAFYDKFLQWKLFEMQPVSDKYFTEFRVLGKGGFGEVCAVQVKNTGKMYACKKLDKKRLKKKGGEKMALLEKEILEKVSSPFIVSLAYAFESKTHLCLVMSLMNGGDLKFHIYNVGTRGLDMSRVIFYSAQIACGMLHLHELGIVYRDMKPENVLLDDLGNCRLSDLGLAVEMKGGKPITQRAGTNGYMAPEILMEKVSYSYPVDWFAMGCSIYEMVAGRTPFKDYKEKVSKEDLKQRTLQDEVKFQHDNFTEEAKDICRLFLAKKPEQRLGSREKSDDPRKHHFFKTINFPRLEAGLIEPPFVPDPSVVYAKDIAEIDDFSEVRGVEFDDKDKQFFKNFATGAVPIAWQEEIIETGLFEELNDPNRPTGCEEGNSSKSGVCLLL
The data set is described as follows: Inhibition of recombinant human full length GST-tagged GRK7 expressed in baculovirus using ulight topo2alpha as substrate preincubated for 60 mins followed by substrate addition measured after 10 mins by Lance TR-FRET assay.

Data set [5] addresses G protein-coupled receptor kinase 6 (Homo sapiens, UniProt P43250). The data set is described as follows: Inhibition of recombinant human full length GST-tagged GRK6 expressed in baculovirus using ulight topo2alpha as substrate preincubated for 60 mins followed by substrate addition measured after 10 mins by Lance TR-FRET assay.
The target in data set [6] is G protein-coupled receptor kinase 5 (Homo sapiens, UniProt P34947).
Description: Inhibition of recombinant human full length GST-tagged GRK5 expressed in baculovirus using ulight topo2alpha as substrate preincubated for 60 mins followed by substrate addition measured after 10 mins by Lance TR-FRET assay
Data set [7] concerns the target T2, Rhodopsin kinase GRK1 (Homo sapiens, UniProt Q15835).
T2 sequence (Q15835 whole entry): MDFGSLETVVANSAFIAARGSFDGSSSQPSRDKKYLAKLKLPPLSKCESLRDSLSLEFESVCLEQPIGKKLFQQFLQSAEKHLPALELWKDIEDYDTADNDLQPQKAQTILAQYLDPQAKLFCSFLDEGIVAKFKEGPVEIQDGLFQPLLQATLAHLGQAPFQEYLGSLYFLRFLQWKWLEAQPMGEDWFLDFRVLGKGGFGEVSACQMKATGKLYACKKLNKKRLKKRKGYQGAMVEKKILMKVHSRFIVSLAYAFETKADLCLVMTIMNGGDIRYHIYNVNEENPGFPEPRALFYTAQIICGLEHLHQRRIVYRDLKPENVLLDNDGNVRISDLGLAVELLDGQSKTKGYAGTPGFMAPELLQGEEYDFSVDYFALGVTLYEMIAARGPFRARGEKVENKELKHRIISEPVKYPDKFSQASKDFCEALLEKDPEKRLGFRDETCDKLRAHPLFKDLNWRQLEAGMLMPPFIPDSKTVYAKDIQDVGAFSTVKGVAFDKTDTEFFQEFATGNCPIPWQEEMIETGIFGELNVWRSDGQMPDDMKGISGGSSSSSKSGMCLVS
Nature of the data set: Inhibition of recombinant human GST-tagged GRK1 expressed in baculovirus infected fall armyworm Sf9 cells after 60 mins by LanthaScreen eu kinase binding assay.

The target in data set [8] is T3, G protein-coupled receptor kinase 3 (Homo sapiens, UniProt P35626).
T3 sequence (P35626 whole entry): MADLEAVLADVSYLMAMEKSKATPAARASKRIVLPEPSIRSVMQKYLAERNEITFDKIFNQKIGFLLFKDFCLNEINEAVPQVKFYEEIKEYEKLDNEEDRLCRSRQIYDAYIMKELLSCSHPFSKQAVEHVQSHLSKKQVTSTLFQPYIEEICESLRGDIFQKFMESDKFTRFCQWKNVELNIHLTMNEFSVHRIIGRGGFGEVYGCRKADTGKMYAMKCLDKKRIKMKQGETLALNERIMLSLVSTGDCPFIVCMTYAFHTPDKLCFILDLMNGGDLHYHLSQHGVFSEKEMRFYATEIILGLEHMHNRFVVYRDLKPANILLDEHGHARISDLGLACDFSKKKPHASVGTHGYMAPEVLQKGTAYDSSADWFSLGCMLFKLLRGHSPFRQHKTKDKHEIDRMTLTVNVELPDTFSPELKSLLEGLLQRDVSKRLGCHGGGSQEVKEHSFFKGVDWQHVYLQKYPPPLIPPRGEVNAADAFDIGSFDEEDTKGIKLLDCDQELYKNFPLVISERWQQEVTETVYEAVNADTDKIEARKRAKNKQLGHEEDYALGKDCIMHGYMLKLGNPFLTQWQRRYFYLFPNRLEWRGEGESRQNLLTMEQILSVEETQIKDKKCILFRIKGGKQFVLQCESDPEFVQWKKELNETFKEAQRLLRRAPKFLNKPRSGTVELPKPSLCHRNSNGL
Nature of the data set: Inhibition of recombinant human full length GST-tagged GRK3 expressed in baculovirus using ulight topo2alpha as substrate preincubated for 60 mins followed by substrate addition measured after 10 mins by Lance TR-FRET assay.

SMILES strings stand for the structures. Bounds are passed on as bounds.

G protein-coupled receptor kinase 6, sequence (P43250 whole entry): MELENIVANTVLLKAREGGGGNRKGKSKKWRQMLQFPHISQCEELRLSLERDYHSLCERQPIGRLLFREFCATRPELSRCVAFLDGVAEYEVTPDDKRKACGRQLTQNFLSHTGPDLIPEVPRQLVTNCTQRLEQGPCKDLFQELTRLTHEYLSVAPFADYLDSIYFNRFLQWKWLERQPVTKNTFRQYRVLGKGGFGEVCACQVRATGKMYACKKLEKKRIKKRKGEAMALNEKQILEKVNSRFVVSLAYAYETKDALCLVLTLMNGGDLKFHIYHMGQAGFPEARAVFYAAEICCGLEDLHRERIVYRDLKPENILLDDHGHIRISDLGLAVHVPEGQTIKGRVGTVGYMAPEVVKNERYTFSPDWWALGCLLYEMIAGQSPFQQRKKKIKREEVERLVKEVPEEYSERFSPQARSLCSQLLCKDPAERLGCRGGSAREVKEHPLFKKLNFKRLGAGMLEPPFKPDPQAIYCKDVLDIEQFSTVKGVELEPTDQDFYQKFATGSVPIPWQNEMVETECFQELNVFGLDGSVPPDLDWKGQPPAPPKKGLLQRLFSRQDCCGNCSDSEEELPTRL
Rho-associated protein kinase 2, sequence (O75116 whole entry, the tested form may be a part): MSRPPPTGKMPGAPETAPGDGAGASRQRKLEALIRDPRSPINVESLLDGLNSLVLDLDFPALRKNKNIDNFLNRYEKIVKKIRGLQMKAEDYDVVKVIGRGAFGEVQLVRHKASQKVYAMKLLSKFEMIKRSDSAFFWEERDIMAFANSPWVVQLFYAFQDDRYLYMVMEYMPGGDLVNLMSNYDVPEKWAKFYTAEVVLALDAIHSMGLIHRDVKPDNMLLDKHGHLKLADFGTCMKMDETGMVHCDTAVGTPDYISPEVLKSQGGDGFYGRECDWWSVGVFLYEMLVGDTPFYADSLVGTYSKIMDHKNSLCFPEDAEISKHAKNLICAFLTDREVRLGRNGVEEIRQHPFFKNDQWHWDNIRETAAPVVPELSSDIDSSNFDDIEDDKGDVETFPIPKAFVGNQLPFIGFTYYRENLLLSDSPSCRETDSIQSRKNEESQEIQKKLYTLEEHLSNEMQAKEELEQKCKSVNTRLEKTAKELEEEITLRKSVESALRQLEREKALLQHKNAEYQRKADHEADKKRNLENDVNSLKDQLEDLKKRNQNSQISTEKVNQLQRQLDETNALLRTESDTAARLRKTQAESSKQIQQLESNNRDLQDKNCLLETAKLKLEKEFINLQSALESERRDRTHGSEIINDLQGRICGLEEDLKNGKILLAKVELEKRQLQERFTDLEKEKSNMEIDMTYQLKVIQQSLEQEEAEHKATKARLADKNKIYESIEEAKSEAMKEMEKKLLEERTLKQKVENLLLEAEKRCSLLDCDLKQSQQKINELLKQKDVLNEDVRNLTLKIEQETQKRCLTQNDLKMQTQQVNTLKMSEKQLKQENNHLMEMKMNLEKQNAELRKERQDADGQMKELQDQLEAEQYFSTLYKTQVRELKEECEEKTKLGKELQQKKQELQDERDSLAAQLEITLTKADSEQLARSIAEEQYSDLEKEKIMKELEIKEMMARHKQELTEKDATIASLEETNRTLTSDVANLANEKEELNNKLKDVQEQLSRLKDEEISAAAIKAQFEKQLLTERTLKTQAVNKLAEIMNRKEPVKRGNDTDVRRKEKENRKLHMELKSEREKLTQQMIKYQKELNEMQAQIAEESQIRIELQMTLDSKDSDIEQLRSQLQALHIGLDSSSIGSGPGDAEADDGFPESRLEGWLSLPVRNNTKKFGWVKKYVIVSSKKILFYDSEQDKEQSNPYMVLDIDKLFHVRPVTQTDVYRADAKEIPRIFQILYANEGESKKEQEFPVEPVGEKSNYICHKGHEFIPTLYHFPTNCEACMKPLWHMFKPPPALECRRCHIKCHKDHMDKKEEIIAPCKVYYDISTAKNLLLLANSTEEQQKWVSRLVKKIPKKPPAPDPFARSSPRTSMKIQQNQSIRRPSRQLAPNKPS
G protein-coupled receptor kinase 5, sequence (P34947 whole entry): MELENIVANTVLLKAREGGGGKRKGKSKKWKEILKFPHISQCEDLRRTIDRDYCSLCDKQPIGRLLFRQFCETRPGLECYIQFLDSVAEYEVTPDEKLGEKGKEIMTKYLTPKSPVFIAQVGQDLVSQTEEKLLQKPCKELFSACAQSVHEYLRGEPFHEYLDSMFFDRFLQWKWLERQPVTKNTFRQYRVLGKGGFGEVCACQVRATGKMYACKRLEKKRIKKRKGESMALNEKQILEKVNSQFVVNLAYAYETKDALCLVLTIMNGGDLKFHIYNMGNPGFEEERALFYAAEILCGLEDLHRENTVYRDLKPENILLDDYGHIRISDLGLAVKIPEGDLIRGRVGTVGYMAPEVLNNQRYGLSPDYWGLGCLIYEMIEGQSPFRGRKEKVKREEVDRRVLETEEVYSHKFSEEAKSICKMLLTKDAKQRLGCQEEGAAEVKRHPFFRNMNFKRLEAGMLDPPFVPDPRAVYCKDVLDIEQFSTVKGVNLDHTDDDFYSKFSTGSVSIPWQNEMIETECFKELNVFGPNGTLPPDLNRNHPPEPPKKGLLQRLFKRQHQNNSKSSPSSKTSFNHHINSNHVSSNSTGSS
CYP3A4, sequence (P08684 whole entry): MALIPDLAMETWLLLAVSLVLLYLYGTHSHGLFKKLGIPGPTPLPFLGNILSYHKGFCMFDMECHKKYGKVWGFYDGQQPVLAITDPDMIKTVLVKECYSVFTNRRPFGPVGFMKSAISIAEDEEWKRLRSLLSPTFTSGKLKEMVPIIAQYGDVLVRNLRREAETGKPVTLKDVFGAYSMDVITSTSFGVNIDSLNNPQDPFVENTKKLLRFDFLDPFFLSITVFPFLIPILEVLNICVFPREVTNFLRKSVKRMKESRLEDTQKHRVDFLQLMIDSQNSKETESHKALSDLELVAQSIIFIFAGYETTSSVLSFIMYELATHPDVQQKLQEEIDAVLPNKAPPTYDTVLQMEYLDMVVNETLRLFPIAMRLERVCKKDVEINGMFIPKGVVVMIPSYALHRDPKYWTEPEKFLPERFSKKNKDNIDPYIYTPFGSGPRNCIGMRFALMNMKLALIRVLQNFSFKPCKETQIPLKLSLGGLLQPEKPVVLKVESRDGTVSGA

On to `CCCn1c(CNc2cccc(C(=O)NCc3c(F)cccc3F)c2)nnc1-c1ccncn1`, for which testing at 10 µM in data set [1] gave an inhibition of 51%. Besides, the IC50 (commonly the concentration that gives 50% inhibition) was 0.25 µM in data set [2] and 190 nM in data set [3].
Turning to `COc1cccc(CNC(=O)c2cccc(NCc3nnc(-c4ccncc4)[nH]3)c2)c1`, testing at 10 µM in data set [1] gave an inhibition of 95%. The concentration for half-maximal inhibition (IC50) amounted to 3.2 µM in data set [2] and 20 nM in data set [3].
The matching figures for `Cn1c(CNc2cccc(C(=O)NCc3ccccc3Cl)c2)nnc1-c1ccncc1`: 54%, 8.7 µM and 1600 nM.
For `COCCn1c(CNc2cccc(C(=O)NCc3ccccc3)c2)nnc1-c1ccncc1` the same measures were 57%, 7.4 µM and 320 nM.
On to `Cc1c(-c2ccncc2)n[nH]c1CNc1cccc(C(=O)NCc2ccccc2)c1`, for which the IC50 in data set [4] is 18 µM; in data set [5] it was greater than 30 µM; in data set [2] it was 4.8 µM; in data set [3], 23 nM; in data set [6] it was greater than 30 µM; in data set [7] it was greater than 30 µM. Also, the IC50 in data set [8] was 4.3 nM. Also, the inhibition (commonly the change of the read-out against control, counted positive when it falls) at 10 µM in data set [1] came out at 96%.
In data set [1], `O=C(NCc1ccccc1C(F)(F)F)c1cccc(NCc2nnc(-c3ccncc3)n2CCO)c1` came in with an inhibition at 10 µM of 79%. Besides, the IC50 in data set [2] was 7.6 µM; in data set [3] it was 320 nM.
`O=C(NCc1ccccc1)c1cccc(NCc2csc(-c3ccncc3)n2)c1`: in data set [1], 10 µM produced 87% inhibition. Also, the IC50 is greater than 10 µM in data set [2] and 120 nM in data set [3].
On to `O=C(NCc1ccccc1C(F)(F)F)c1cccc(NCc2nnc3n2CCOc2cnccc2-3)c1`, for which the IC50 in data set [4] was 2.4 µM; in data set [5] it was greater than 30 µM; in data set [3], 49 nM; in data set [6], 1.5 µM; in data set [7] it was 0.27 µM; in data set [8] it was 0.65 nM. The compound also registered an inhibition at 10 µM in data set [1] of 83%.
Consider `COc1ccccc1CNC(=O)c1cccc(NCc2nnc(-c3ccncc3)n2C)c1`, for which the inhibition at 10 µM in data set [1] worked out at 60%. Further, the values for the IC50 in data set [2] and in data set [3] were greater than 10 µM and 1600 nM, respectively.
In the case of `O=C(NCc1ccccc1Cl)c1cccc(NCc2nnc(-c3ccncc3)[nH]2)c1`, 10 µM produced 97% inhibition in data set [1]. The IC50 in data set [2] was 1.1 µM; in data set [3] it was 50 nM.
The matching figures for `O=C(NCc1ccccc1)c1cccc(NCc2nc(-c3ccncc3)no2)c1`: 86%, greater than 10 µM and 350 nM.
In the case of `O=C(NCc1ccccc1)c1cccc(NCc2nc(-c3ccncc3)n[nH]2)c1`, the IC50 in data set [4] is 8.8 µM; in data set [5], greater than 30 µM; in data set [2], 6.3 µM; in data set [3] it was 24 nM; in data set [6], 5.7 µM; in data set [7], greater than 30 µM. The IC50 in data set [8] was determined as 1.8 nM. The compound further came in with an inhibition at 10 µM in data set [1] of 91%.
Compound `COc1ccc(CNC(=O)c2cccc(NCc3nnc(-c4ccncc4)[nH]3)c2)cc1` gave an inhibition at 10 µM in data set [1] of 91%. In addition, the IC50 in data set [2] came out at 7.1 µM; in data set [3], 27 nM.
Turning to `CCn1c(CNc2cccc(C(=O)NCc3ccccc3)c2)nnc1-c1ccncc1`, the IC50 in data set [4] was greater than 30 µM; in data set [5], greater than 30 µM; in data set [2], 2.9 µM; in data set [3], 76 nM; in data set [7] it was greater than 30 µM; in data set [8], 3.3 nM. This compound also displayed an inhibition at 10 µM in data set [1] of 50%.
`CCCn1c(CNc2cccc(C(=O)NCc3ccccc3C(F)(F)F)c2)nnc1-c1ccncn1` had an inhibition at 10 µM in data set [1] of 81%. Besides, the values for the IC50 in data set [2] and in data set [3] were 1.2 µM and 140 nM, respectively.
The matching figures for `CC(C)n1c(CNc2cccc(C(=O)NCc3ccccc3)c2)nnc1-c1ccncc1`: 50%, 4.8 µM and 260 nM.
For `Cn1c(CNc2cccc(C(=O)NCc3ccccc3C(F)(F)F)c2)nnc1-c1ccncn1` the same measures were 63%, greater than 10 µM and 720 nM.
On to `CNC(=O)c1cccc(NCc2nc(-c3ccncc3)n[nH]2)c1`, for which the IC50 in data set [4] is greater than 30 µM; in data set [5] it was greater than 30 µM; in data set [2], greater than 10 µM; in data set [3] it was 220 nM; in data set [6], greater than 30 µM; in data set [7], greater than 30 µM. Further, the IC50 in data set [8] was determined as 21 nM. In data set [1], this compound yielded an inhibition at 10 µM of 66%.
In the case of `COc1ccccc1CNC(=O)c1cccc(NCc2nnc(-c3ccncc3)[nH]2)c1`, the inhibition at 10 µM in data set [1] stood at 95%. The IC50 in data set [2] is 3.3 µM; in data set [3] it was 85 nM.
For `O=C(NCc1ccccc1)c1cccc(NCc2nnc(-c3ccncc3)o2)c1` the same measures were 43%, greater than 10 µM and 320 nM.
The matching figures for `O=C(NCc1ccccc1)c1cccc(NCc2nc(-c3ccncc3)cs2)c1`: 92%, greater than 10 µM and 22 nM.
The matching figures for `Cn1c(CNc2cccc(C(=O)NCc3c(F)cccc3F)c2)nnc1-c1ccncn1`: 24%, greater than 10 µM and 1900 nM.
The compound `O=C(NCc1ccccc1)c1cccc(NCc2cc(-c3ccncc3)c[nH]2)c1` showed an inhibition at 10 µM in data set [1] of 100%. Further, the IC50 in data set [2] was greater than 10 µM; in data set [3], 52 nM.
The compound `O=C(NCc1ccccc1)c1cccc(NCc2cc(-c3ccncc3)no2)c1` gave an inhibition at 10 µM in data set [1] of 92%. The IC50 in data set [2] was found to be 8.3 µM; in data set [3], 130 nM.
